Measurements: ChEMBL document CHEMBL1153401, “Role of the hydrogen bonding heteroatom-Lys53 interaction between the p38alpha mitogen-activated protein (MAP) kinase and pyridinyl-substituted 5-membered heterocyclic ring inhibitors” (J Med Chem, 2009)
pIC50: −log10 of the molar value.

Biological target: Mitogen-activated protein kinase 14 (Homo sapiens, UniProt Q16539)
Assay: Inhibition of p38alpha MAP kinase

Sequence of Mitogen-activated protein kinase 14 (Q16539 whole entry): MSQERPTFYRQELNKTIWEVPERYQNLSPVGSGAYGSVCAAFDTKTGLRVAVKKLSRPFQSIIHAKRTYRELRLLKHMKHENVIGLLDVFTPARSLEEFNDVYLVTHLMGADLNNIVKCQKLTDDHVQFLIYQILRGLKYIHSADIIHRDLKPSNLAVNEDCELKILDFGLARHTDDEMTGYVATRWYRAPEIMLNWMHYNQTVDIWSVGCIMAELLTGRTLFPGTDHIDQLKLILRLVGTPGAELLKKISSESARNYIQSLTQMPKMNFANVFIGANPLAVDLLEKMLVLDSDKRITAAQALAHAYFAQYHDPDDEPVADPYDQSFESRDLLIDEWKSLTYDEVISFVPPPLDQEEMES

Fc1ccc(-c2occc2-c2ccncc2)cc1
pIC50: 6.13

Fc1ccc(C2=C(c3ccncc3)CCC2)cc1
pIC50: 5.39

Fc1ccc(-c2nc[nH]c2-c2ccncc2)cc1
pIC50: 7.10

Fc1ccc(-c2[nH]ccc2-c2ccncc2)cc1
pIC50: 6.38
